Measured values: US7662988B2, “Ester compound and its use” (Sumitomo Chemical Company, Limited, priority 2006, dated 2010)

Tests used:
Adult houseflies [1] = assay: Housefly knock-down test, 0.025% oil solution spray in cubic chamber; type: in vivo; conditions: 0.7 ml of 0.025% oil solution sprayed in 70 cm cubic chamber, 2 minutes after spraying
Experimental: A solution of 0.025 part of the present compound (A) in 10 parts of dichloromethane was mixed with 89.975 parts of deodorized kerosene to obtain a 0.025% oil solution.
Adult houseflies (5 males and 5 females) were left in a cubic chamber (70 cm at each side). Into the chamber, 0.7 ml of 0.025% oil solution of the present compound (A) prepared above was sprayed with a spray gun at a pressure of 8.8×10^4 Pa from a small window on the side of the chamber. Two minutes after spraying, the number of the knocked-down insects was counted (repeated twice).
The same test was carried out except that 4-propargyl-2,3,5,6-tetrafluorobenzyl (1R)-trans-3-(2-methyl-1-propenyl)-2,2-dimethylcyclopropanecarboxylate represented by the formula:
[drawing 7] (The compound described as compound 2 in TABLE 1 of EP 0196156 A1; hereinafter, referred to as the comparative compound 1) was used instead of the present compound (A).
Knock-down ratios, i.e., ratios of the number of knocked-down insects 2 minutes after the spraying to the number of tested insects, are shown in Table 1.

Adult houseflies [2] = assay: Housefly KT90 test, 0.00625% oil solution spray in cubic chamber; type: in vivo; conditions: 0.7 ml of 0.00625% oil solution sprayed in 70 cm cubic chamber, counted up to 10 minutes after spraying
Experimental: A solution of 0.00625 part of the present compound (A) in 10 parts of dichloromethane was mixed with 89.99375 parts of deodorized kerosene to obtain a 0.00625% oil solution.
Adult houseflies (5 males and 5 females) were left in a cubic chamber (70 cm at each side). Into the chamber, 0.7 ml of 0.00625% oil solution of the present compound (A) prepared above was sprayed into the chamber with a spray gun at a pressure of 8.8×10^4 Pa from a small window on the side of the chamber. Then, up to 10 minutes after spraying, the number of the knocked-down insects was counted with time (repeated twice). The time required for knocking down 90% of the tested insects (KT90) was calculated from the results.
The same tests were carried out except for using the comparative compound 1 and 4-methoxymethyl-2,3,5,6-tetrafluorobenzyl (1R)-trans-3-(2-cyano-1-propenyl)-2,2-dimethylcyclopropanecarboxylate represented by the formula:
[drawing 8] (The compound described in JP 2004-2363 A; hereinafter, referred to as the comparative compound 2.).

| Structure (SMILES) | Knock-down ratio (%) (Adult houseflies [1]) | KT90 (minutes), time required for knocking down 90% of the tested insects (Adult houseflies [2]) |
| --- | --- | --- |
| C#CCc1c(F)c(F)c(COC(=O)[C@@H]2[C@@H](C=C(C)C)C2(C)C)c(F)c1F [Comparative compound 1, 4-propargyl-2,3,5,6-tetrafluorobenzyl (1R)-trans-3-(2-methyl-1-propenyl)-2,2-dimethylcyclopropanecarboxylate] | 0% | Not less than 10 minutes |
| COCc1c(F)c(F)c(COC(=O)[C@@H]2[C@@H](C=C(C)C#N)C2(C)C)c(F)c1F [Comparative compound 2, 4-methoxymethyl-2,3,5,6-tetrafluorobenzyl (1R)-trans-3-(2-cyano-1-propenyl)-2,2-dimethylcyclopropanecarboxylate] | – | 4.3 min |
| C#CCc1c(F)c(F)c(COC(=O)[C@@H]2[C@@H](C=C(C)C#N)C2(C)C)c(F)c1F [Present compound (A), 4-propargyl-2,3,5,6-tetrafluorobenzyl (1R)-trans-3-(2-cyano-1-propenyl)-2,2-dimethylcyclopropanecarboxylate] | 100% | 2.0 min |
